Test results reported in US20240215582A1, “METHODS OF CONTROLLING PLANT PATHOGENS” (Valent BioSciences LLC, priority 2022, published 2024).
Where two headings read alike, the source gives them in different places. Marks after values point to notes of the source that are not given here.

How the values were obtained:
[1] = test system: Pseudoperonospora cubensis; assay: Foliar application, inoculated plants, disease severity; conditions: for Disease severity P. cubensis Oct. 20, 2020: carrier control severity 70; for Disease severity P. cubensis Oct. 27, 2020: carrier control severity 79; for Disease severity P. cubensis Jul. 28, 2020: carrier control severity 67; for Disease severity P. cubensis Jul. 21, 2020: carrier control severity 100
Description: (§1) Biological efficacy assays utilizing cervinomycins were conducted on Pseudoperonospora cubensis and Botrytis cinerea. […] Once plants had dried they were inoculated with the pathogen, then were stored in a controlled climate chamber under high humidity for 4-6 days. At the end of the experiment disease severity was determined based on the percentage of plant tissue that was visually symptomatic.

[2] = test system: Zymoseptoria tritici; assay: Host plant efficacy assay (wheat); format: in vivo; conditions: in vivo
[3] = test system: Podosphaera xanthii; assay: Host plant efficacy assay (cucumber); format: in vivo; conditions: in vivo
[4] = test system: Phytophthora infestans; format: in vivo
[5] = test system: Magnaporthe oryzae; format: in vivo
[6] = test system: Fusarium graminearum; format: cell-based
[7] = test system: Botrytis cinerea; assay: Foliar application, inoculated plants, disease severity; conditions: for Disease severity B. cinerea: carrier control severity 63.3; for percent control B. cinerea: vs carrier control
Description: as §1

[8] = test system: Phakopsora pachyrhizi; assay: Host plant efficacy assay (soybean); format: in vivo; conditions: in vivo
[9] = test system: Plasmospora viticola; assay: Efficacy on grape plants infected with Plasmospora viticola; conditions: for % control Plasmospora viticola 1DAI: 1 day after infection; for % control Plasmospora viticola 1DAI / % control Plasmospora viticola 1DB1 / % control Plasmospora viticola 7DBI: grape plants; for % control Plasmospora viticola 1DB1: 1 day before infection; for % control Plasmospora viticola 7DBI: 7 days before infection
Excerpt: Treatments occurred at either 1 day before infection (“1 DBI”), 7 days before infection (“7 DBI”) or 1 day after infection (“1 DAI”).

[10] = test system: Erysiphe diffusa; assay: Host plant efficacy assay (soybean); format: in vivo; conditions: in vivo
[11] = test system: Pyrenophora teres; assay: Host plant efficacy assay (barley); format: in vivo; conditions: in vivo
[12] = test system: Cochliobolus miyabeanus; assay: In vitro growth on cervinomycin-amended growth media; format: cell-based
[13] = 1 ppm foliar, vs carrier control
[14] = 3 ppm foliar, vs carrier control
[15] = 6 ppm foliar, vs carrier control
[16] = 12 ppm foliar, vs carrier control
[17] = 25 ppm foliar, vs carrier control
[18] = 30 ppm foliar, vs carrier control
[19] = 50 ppm foliar, vs carrier control

Compound: COc1cc2oc3c(O)c4ccc5cc6c(c(O)c5c4c(O)c3c(=O)c2cc1OC)C(=O)N1CCOC1(C)C6 (centres unmarked) [Cervinomycin A1, cervinomycin A1]
- Disease severity P. cubensis Oct. 20, 2020 ([1]; 1 ppm foliar): 13%
- Disease severity P. cubensis Oct. 27, 2020 ([1]; 1 ppm foliar): 2%
- percent control P. cubensis Oct. 20, 2020 [1, 13]: (81%)*
- percent control P. cubensis Oct. 27, 2020 [1, 13]: 98%
- Disease severity P. cubensis Jul. 28, 2020 ([1]; 3 ppm foliar): 47%
- Disease severity P. cubensis Oct. 20, 2020 ([1]; 3 ppm foliar): 3%
- Disease severity P. cubensis Oct. 27, 2020 ([1]; 3 ppm foliar): 1%
- percent control P. cubensis Jul. 28, 2020 [1, 14]: 30%
- percent control P. cubensis Oct. 20, 2020 [1, 14]: (96%)
- percent control P. cubensis Oct. 27, 2020 [1, 14]: 99%
- Disease severity P. cubensis Oct. 20, 2020 ([1]; 6 ppm foliar): 2%
- Disease severity P. cubensis Oct. 27, 2020 ([1]; 6 ppm foliar): 1%
- percent control P. cubensis Oct. 20, 2020 [1, 15]: (97%)
- percent control P. cubensis Oct. 27, 2020 [1, 15]: 99%
- Disease severity P. cubensis Jul. 28, 2020 ([1]; 7.5 ppm foliar): 43%
- percent control P. cubensis Jul. 28, 2020 ([1]; 7.5 ppm foliar, vs carrier control): 36%
- Disease severity P. cubensis Oct. 20, 2020 ([1]; 12 ppm foliar): 1%
- Disease severity P. cubensis Oct. 27, 2020 ([1]; 12 ppm foliar): 2%
- percent control P. cubensis Oct. 20, 2020 [1, 16]: (99%)
- percent control P. cubensis Oct. 27, 2020 [1, 16]: 98%
- Disease severity P. cubensis Jul. 28, 2020 ([1]; 15 ppm foliar): 16%
- percent control P. cubensis Jul. 28, 2020 ([1]; 15 ppm foliar, vs carrier control): 76%
- Disease severity P. cubensis Oct. 20, 2020 ([1]; 25 ppm foliar): 1%
- Disease severity P. cubensis Oct. 27, 2020 ([1]; 25 ppm foliar): 1%
- percent control P. cubensis Oct. 20, 2020 [1, 17]: (99%)
- percent control P. cubensis Oct. 27, 2020 [1, 17]: 99%
- Disease severity P. cubensis Jul. 28, 2020 ([1]; 30 ppm foliar): 7%
- Disease severity P. cubensis Jul. 14, 2020 ([1]; 30 ppm foliar, carrier control severity 98): 25%
- Disease severity P. cubensis Jul. 21, 2020 ([1]; 30 ppm foliar): 3%
- percent control P. cubensis Jul. 14, 2020 [1, 18]: 74%
- percent control P. cubensis Jul. 21, 2020 [1, 18]: 97%
- percent control P. cubensis Jul. 28, 2020 [1, 18]: 89%
- Disease severity P. cubensis Oct. 20, 2020 ([1]; 50 ppm foliar): 0.4%
- Disease severity P. cubensis Oct. 27, 2020 ([1]; 50 ppm foliar): 1%
- percent control P. cubensis Oct. 20, 2020 [1, 19]: (99%)
- percent control P. cubensis Oct. 27, 2020 [1, 19]: 99%
- Disease severity P. cubensis Jul. 21, 2020 ([1]; 192 ppm foliar): 3%
- percent control P. cubensis Jul. 21, 2020 ([1]; 192 ppm foliar, vs carrier control): 97%
- control of Pseudoperonospora cubensis (summary of Table 3) ([1]; foliar application): significant control
- % control Zymoseptoria tritici Wheat 3DAI [2]: 0 (key: 5 (about 100%); 4 (about 90%); 3 (about 70%); 2 (about 50%); 1 (about 25%); 0 (about 0%))
- % control Zymoseptoria tritici Wheat 4DBI [2]: 0 (key: 5 (about 100%); 4 (about 90%); 3 (about 70%); 2 (about 50%); 1 (about 25%); 0 (about 0%))
- % control Podosphaera xanthii Cucumber 1DBI [3]: 0 (key: 5 (about 100%); 4 (about 90%); 3 (about 70%); 2 (about 50%); 1 (about 25%); 0 (about 0%))
- % control Phytophthora infestans Tomato 1DBI ([4]; 11.3 ppm): 0 (0 (about 0%))
- % control Phytophthora infestans Tomato 1DBI ([4]; 45 ppm): 0 (0 (about 0%))
- % control Phytophthora infestans Tomato 1DBI ([4]; 180 ppm): 3 (3 (about 70%))
- % control Magnaporthe oryzae Rice 1DBI ([5]; 11.3 ppm): 0 (0 (about 0%))
- % control Magnaporthe oryzae Rice 1DBI ([5]; 45 ppm): 0 (0 (about 0%))
- % control Magnaporthe oryzae Rice 1DBI ([5]; 180 ppm): 0 (0 (about 0%))
- % Control Fusarium graminearum ([6]; 0.004 ppm in growth media): 4%
- % Control Fusarium graminearum ([6]; 0.016 ppm in growth media): 6%
- % Control Fusarium graminearum ([6]; 0.063 ppm in growth media): 7%
- % Control Fusarium graminearum ([6]; 0.25 ppm in growth media): 20%
- % Control Fusarium graminearum ([6]; 1 ppm in growth media): 31%
- Disease severity B. cinerea ([7]; 1 ppm foliar): 31%
- percent control B. cinerea ([7]; 1 ppm foliar): (51%)
- Disease severity B. cinerea ([7]; 3 ppm foliar): 17%
- percent control B. cinerea ([7]; 3 ppm foliar): (74%)
- Disease severity B. cinerea ([7]; 6 ppm foliar): 9%
- percent control B. cinerea ([7]; 6 ppm foliar): (85%)
- Disease severity B. cinerea ([7]; 12 ppm foliar): 2%
- percent control B. cinerea ([7]; 12 ppm foliar): (96%)
- Disease severity B. cinerea ([7]; 25 ppm foliar): 2%
- percent control B. cinerea ([7]; 25 ppm foliar): (96%)
- Disease severity B. cinerea ([7]; 50 ppm foliar): 1%
- percent control B. cinerea ([7]; 50 ppm foliar): (98%)
- control of Botrytis cinerea (summary of Table 3) ([7]; foliar application): significant control
- % control Phakopsora pachyrhizi Soybean 3DAI [8]: 0 (key: 5 (about 100%); 4 (about 90%); 3 (about 70%); 2 (about 50%); 1 (about 25%); 0 (about 0%))
- control of P. viticiola (summary of Table 1) ([9]; 13-800 ppm): significant control
- % control Plasmospora viticola 1DAI ([9]; 13 ppm): 0%
- % control Plasmospora viticola 1DB1 ([9]; 13 ppm): 100%
- % control Plasmospora viticola 7DBI ([9]; 13 ppm): 80%
- % control Plasmospora viticola 1DAI ([9]; 50 ppm): 0%
- % control Plasmospora viticola 1DB1 ([9]; 50 ppm): 100%
- % control Plasmospora viticola 1DAI ([9]; 200 ppm): 0%
- % control Plasmospora viticola 1DB1 ([9]; 200 ppm): 100%
- % control Plasmospora viticola 7DBI ([9]; 200 ppm): 100%
- % control Plasmospora viticola 1DAI ([9]; 800 ppm): 7%
- % control Plasmospora viticola 1DB1 ([9]; 800 ppm): 100%
- % control Plasmospora viticola 7DBI ([9]; 800 ppm): 100%
- % control Erysiphe diffusa Soybean 2DAI [10]: 0 (key: 5 (about 100%); 4 (about 90%); 3 (about 70%); 2 (about 50%); 1 (about 25%); 0 (about 0%))
- % control Pyrenophora teres Barley 1DBI [11]: 0 (key: 5 (about 100%); 4 (about 90%); 3 (about 70%); 2 (about 50%); 1 (about 25%); 0 (about 0%))
- % Control Cochliobolus miyabeanus ([12]; 0.004 ppm in growth media): 1%
- % Control Cochliobolus miyabeanus ([12]; 0.016 ppm in growth media): 2%
- % Control Cochliobolus miyabeanus ([12]; 0.063 ppm in growth media): 29%
- % Control Cochliobolus miyabeanus ([12]; 0.25 ppm in growth media): 59%
- % Control Cochliobolus miyabeanus ([12]; 1 ppm in growth media): 74%
